Measured values published in patent publication US7074806B2, “Glucocorticoid mimetics, methods of making them, pharmaceutical compositions, and uses thereof” (Boehringer Ingelheim Pharmaceuticals, Inc., priority 2002, dated 2006).

Target: T1, human glucocorticoid receptor (GR) complex (Homo sapiens, UniProt P04150)
T1 construct: made in house; host or cells: insect expression system (baculovirus lysate)
T1 sequence (P04150 1-777): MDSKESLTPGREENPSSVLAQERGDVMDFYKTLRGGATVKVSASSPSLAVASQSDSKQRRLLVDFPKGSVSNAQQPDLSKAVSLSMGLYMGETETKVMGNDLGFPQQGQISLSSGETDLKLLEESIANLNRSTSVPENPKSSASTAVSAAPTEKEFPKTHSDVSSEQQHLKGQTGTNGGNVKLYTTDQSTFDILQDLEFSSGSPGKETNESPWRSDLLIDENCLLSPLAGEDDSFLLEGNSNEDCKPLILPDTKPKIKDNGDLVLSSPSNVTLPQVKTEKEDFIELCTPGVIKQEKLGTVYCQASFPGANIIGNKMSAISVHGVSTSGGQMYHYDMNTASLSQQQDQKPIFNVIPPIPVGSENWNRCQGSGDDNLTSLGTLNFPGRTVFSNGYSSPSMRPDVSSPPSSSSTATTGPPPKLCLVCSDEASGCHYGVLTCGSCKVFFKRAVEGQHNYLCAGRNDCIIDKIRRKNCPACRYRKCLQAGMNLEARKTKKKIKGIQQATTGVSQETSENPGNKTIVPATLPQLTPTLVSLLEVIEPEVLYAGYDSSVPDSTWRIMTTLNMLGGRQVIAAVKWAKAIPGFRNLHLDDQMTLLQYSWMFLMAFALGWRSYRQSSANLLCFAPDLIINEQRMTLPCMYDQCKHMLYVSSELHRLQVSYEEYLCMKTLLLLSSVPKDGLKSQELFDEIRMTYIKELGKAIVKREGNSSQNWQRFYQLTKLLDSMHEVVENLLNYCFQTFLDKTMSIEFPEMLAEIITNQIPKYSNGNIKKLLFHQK
Experiment: Glucocorticoid Receptor Competitive Binding Assay (fluorescence polarization)
Settings: competition with TAMRA-labeled dexamethasone for binding to GR; result in words only
Procedure: Compounds of the invention were evaluated for binding to the steroid receptor by a fluorescence polarization competitive binding assay. Detailed descriptions for preparation of recombinant glucocorticoid receptor (GR) complex used in the assay is described in Goldrick et al., U.S. provisional application No. 60/291,877, filed May 18, 2001 (corresponding to Goldrick et al., U.S. nonprovisional application No. 10/151,133, filed May 20, 2002, both incorporated herein by reference in their entirety. Preparation of the tetramethyl rhodamine (TAMRA)-labeled dexamethasone probe was accomplished using a standard literature procedure (M. Pons et al., J. Steroid Biochem., 1985, 22, pp. 267–273).
A. Glucocorticoid Receptor Competitive Binding Assay
Step 1. Characterization of the Fluorescent Probe
The wavelengths for maximum excitation and emission of the fluorescent probe should first be measured. An example of such a probe is rhodamine (TAMRA)-labeled dexamethasone.
The affinity of the probe for the steroid receptor was then determined in a titration experiment. The fluorescence polarization value of the probe in assay buffer was measured on an SLM-8100 fluorometer using the excitation and emission maximum values described above. Aliquots of expression vector lysate were added and fluorescence polarization was measured after each addition until no further change in polarization value was observed. Non-linear least squares regression analysis was used to calculate the dissociation constant of the probe from the polarization values obtained for lysate binding to the probe.
Step 2. Screening for Inhibitors of Probe Binding
This assay uses fluorescence polarization (FP) to quantitate the ability of test compounds to compete with tetramethyl rhodamine (TAMRA)-labeled dexamethasone for binding to a human glucocorticoid receptor (GR) complex prepared from an insect expression system. The assay buffer was: 10 mM TES, 50 mM KCl, 20 mM Na2MoO4.2H2O, 1.5 mM EDTA, 0.04% w/v CHAPS, 10% v/v glycerol, 1 mM dithiothreitol, pH 7.4. Test compounds were dissolved to 1 mM in neat DMSO and then further diluted to 10×assay concentration in assay buffer supplemented with 10% v/v DMSO. Test compounds were serially diluted at 10×assay concentrations in 10% DMSO-containing buffer in 96-well polypropylene plates. Binding reaction mixtures were prepared in 96-well black Dynex microtiter plates by sequential addition of the following assay components to each well: […] of 10×test compound solution, 85 μL of GR-containing baculovirus lysate diluted 1:170 in assay buffer, and 50 μL of 15 nM TAMRA-labeled dexamethasone. Positive controls were reaction mixtures containing no test compound; negative controls (blanks) were reaction mixtures containing 0.7 μM to 2 μM dexamethasone. The binding reactions were incubated for 1 hour at room temperature and then read for fluorescence polarization in the LJL Analyst set to 550 nm excitation and 580 nm emission, with the Rhodamine 561 dichroic mirror installed. IC50 values were determined by iterative non-linear curve fitting of the FP signal data to a 4-parameter logistic equation.

SMILES | activity in the GR binding assay
COc1ccc(F)cc1C(C)(C)CC(N)(Cc1cc2ccccc2[nH]1)C(F)(F)F (stereo not drawn) [Compound 2, 3-(5-Fluoro-2-methoxy-phenyl)-1-(1H-indol-2-ylmethyl)-3-methyl-1-trifluoromethyl-butylamine] | demonstrated activity
COc1ccc(F)cc1C(C)(C)CC(N)(Cc1ccnc2ccccc12)C(F)(F)F (stereo not drawn) [Compound 12, 3-(5-Fluoro-2-methoxy-phenyl)-3-methyl-1-quinolin-4-ylmethyl-1-trifluoromethyl-butylamine] | demonstrated activity
CNC(Cc1ccnc2ccccc12)(CC(C)(C)c1cc(F)ccc1OC)C(F)(F)F (stereo not drawn) [Compound 24, [3-(5-Fluoro-2-methoxy-phenyl)-3-methyl-1-quinolin-4-ylmethyl-1-trifluoromethyl-butyl]-methyl-amine] | demonstrated activity

The next lines start with the values.

activity in the GR binding assay | SMILES
demonstrated activity | CCCNC(Cc1ccnc2ccccc12)(CC(C)(C)c1cc(F)ccc1OC)C(F)(F)F (stereo not drawn) [Compound 26, [3-(5-Fluoro-2-methoxy-phenyl)-3-methyl-1-quinolin-4-ylmethyl-1-trifluoromethyl-butyl]-propyl-amine]
demonstrated activity | COc1ccc(F)cc1C(C)(C)CC(Cc1ccnc2ccccc12)(NCC(C)C)C(F)(F)F (stereo not drawn) [Compound 27, [3-(5-Fluoro-2-methoxy-phenyl)-3-methyl-1-quinolin-4-ylmethyl-1-trifluoromethyl-butyl]-isobutyl-amine]
demonstrated activity | CCCCNC(Cc1ccnc2ccccc12)(CC(C)(C)c1cc(F)ccc1OC)C(F)(F)F (stereo not drawn) [Compound 28, Butyl-[3-(5-fluoro-2-methoxy-phenyl)-3-methyl-1-quinolin-4-ylmethyl-1-trifluoromethyl-butyl]-amine]
